The nature of series [1]: MTX toxicity in irradiated mice transplanted with normal (non-transgenic) FVB/N marrow. As to the method: (§1) Male marrow is used as competitor so that Y chromosome sequences can be used as a quantitative signal for the presence of competitor-derived material at the time of analysis, while the DHFR transgene can be used as a quantitative signal for presence of DHFR-transgenic-derived material.
(§2) Animals in each of the three groups were administered either PBS or MTX at an increasing dose schedule culminating at 4 mg/kg/day. MTX administration was continued out to 60 days post-transplant. […] After 60 days, MTX administration is stopped. A small number of animals were sacrificed at this time to collect marrow samples for subsequent analysis, but most of the animals were maintained for an additional 2 months. At 4 months post-transplant, all surviving animals were sacrificed and bone marrow harvested. Each marrow sample collected was resuspended and then injected into 5 lethally-irradiated secondary female FVB/N recipients (2×10^6 donor cells per secondary recipient), saving the leftover marrow for subsequent molecular analysis. Secondary recipients were maintained for an additional 4 months before sacrificing and harvesting marrow samples.

Series [2] concerns stem cells expressing a MTX-resistant DHFR. As to the kind of experiment: Competitive repopulation with 50/50 mixture of normal and DHFR transgenic marrow, Southern blot of marrow DNA. Type of series: in vivo, FVB/N mice. As to the method: as §1, §2

SMILES strings stand for the structures.

For `CN(Cc1cnc2nc(N)nc(N)c2n1)c1ccc(C(=O)N[C@@H](CCC(=O)O)C(=O)O)cc1` [MTX, methotrexate], the “toxicity of low dose MTX” value in series [1] (0.25 mg/kg/day for 1-4 days, 0.5 mg/kg/day next four days, then 1.0 mg/kg/day, recipients of non-transgenic marrow) was “caused hematopoietic toxicity”. Moreover, the “time at which animals succumb to MTX induced toxicity” value in series [1] (irradiated (900 rads) mice transplanted with 10^7 normal FVB/N marrow cells, MTX increasing dose schedule culminating at 4 mg/kg/day, all animals) is recorded as 15-30 days post-transplant. Moreover, the “toxicity of high dose MTX” value in series [1] (mouse, in vivo, 4 mg/kg/day) is reported as “causes not only hematopoietic toxicity but gastrointestinal toxicity as well”. Moreover, the “DHFR transgene copy number in primary recipients” value in series [2] (animals transplanted with transgenic marrow, MTX rather than PBS) was “substantial increase”. Moreover, the “secondary recipients showing a substantial contribution of transgenic marrow” value in series [2] (primary transplant 50% normal / 50% DHFR transgenic marrow, MTX up to 4 mg/kg/day for 60 days, secondary recipients analysed 4 months after secondary transplant) is given as 5 out of 5.

Source of the values: US6485722B1, “Method for selective engraftment of drug-resistant hematopoietic stem cells” (Regents of the University of Minnesota, priority 1996, dated 2002).
